Results as given in patent publication US11220534B2, “Treatment of neurological diseases” (Lancaster University Business Enterprises Limited, priority 2016, dated 2022).
Where no end group is shown, it is not given here. [ ]: non-standard residue; d: D form. Aib = CC(C)(N)C(=O)O

Key:
[1] = system: MPTP mouse model of Parkinson's disease; settings: cited from earlier work
[2] = system: APP/PS1 mouse model of AD; settings: 12 months old APP/PS1 mice; cited from earlier work
APP/PS1 transgenic mice [3] = assay: Immunohistochemical measurement of beta-amyloid plaque load in the cortex of APP/PS1 transgenic mice; format: in vivo
Description: (§1) Animal models have been developed to test novel drugs. A standard model for Alzheimer's disease is transgenic mice that express human mutated genes for amyloid production that are known to induce Alzheimer's disease in humans. These APP/PS1 transgenic mice recapitulate some of the symptoms of Alzheimer's disease such as the aggregation of amyloid in the brain, memory loss and the loss of synapses (Radde et al., 2006).
(§2) The APP/PS1 mice express human Swedish mutated APP and human mutated presenilin-1 which induce Alzheimer's Disease in humans.
(§3) The dose of peptide tested was 10 nmol/kg body weight. The peptides were administered by a once-daily intraperitoneal injection for 8 weeks. Saline injections were administered as a control. Six animals per group were injected with a peptide or a saline control.
Animals (6 per group) were perfused transcardially with 30 ml of ice-cold PBS and 30 ml of ice-cold 4% paraformaldehyde to postfix the brain. The brains were removed and placed in fresh 30% sucrose solution in PBS to cryoprotect tissue and cut at a thickness of 40 μm on a cryostat. Sections were chosen according to stereological rules, with the first section taken at random and every 5th section afterwards. Between 7 and 13 sections were analysed per brain.
Immunostaining techniques were used to assess the neuronal plaque load (anti beta-amyloid rabbit polyclonal antibody (1:200, rabbit polyclonal-Invitrogen 71-5800) and of synaptophysin (polyclonal rabbit anti-synaptophysin primary antibody, 1:2000, Abcam, Cambridge, UK) to measure the amount of synapses in the cortex. Brain samples were first exposed to 99% formic acid for 7 minutes and then washed 3 times for 10 minutes in TBS. Pre-treatment with 99% formic acid is known to drastically increase the detection of beta-Amyloid in formalin-fixed brain samples. Then samples were incubated in 0.3% H2O2 (Sigma Aldrich; Cat.-No.: 516813) in TBS for 30 minutes on the shaker to deplete endogenous peroxides activity, and were 3 times washed in TBS for 10 minutes afterwards.
To increase permeability of membranes in the brain tissue, samples were exposed to 0.3% Triton X-100 (Sigma Aldrich; Cat.-No.: 516813) in TBS for 10 minutes on the shaker. Unspecific proteinophilic binding in the tissue was saturated by incubating the samples with 5% goat serum (Gibco; Cat.-No.: 16210-064) in TBS for 30 minutes on the shaker.
A primary antibody against beta-Amyloid or synaptophysin was added and incubated overnight on the shaker at 4° C. The antibody was polyclonal and raised against a synthetic beta-Amyloid 1-43 peptide in rabbit. The primary antibody was used in a final dilution of 1 to 250 in TBS containing 2% goat serum and […]. […]

APP/PS1 transgenic mice [4] = assay: Immunohistochemical measurement of synaptic densities (synaptophysin) in the cortex of APP/PS1 transgenic mice; format: in vivo; settings: 10 nmol/kg i.p. once daily for 8 weeks, FIG. 2, N=6 per group
Description: as §1, §2, §3
Animals (6 per group) were perfused transcardially with 30 ml of ice-cold PBS and 30 ml of ice-cold 4% paraformaldehyde to postfix the brain. The brains were removed and placed in fresh 30% sucrose solution in PBS to cryoprotect tissue and cut at a thickness of 40 μm on a cryostat. Sections were chosen according to stereological rules, with the first section taken at random and every 5th section afterwards. Between 7 and 13 sections were analysed per brain. […]

C57BL/6 mice given MPTP [5] = assay: Rotarod motor control test in the MPTP Parkinson mouse model; format: in vivo; settings: 10 nmol/kg i.p. once daily for 2 weeks, FIG. 3, N=6 per group
Description: (§4) A standard model to induce Parkinson like symptoms in mice is the injection of the chemical (MPTP) (Li et al., 2009). This chemical impairs or kills neurons in the brain that produce dopamine. The mice develop motor impairments, and the dopaminergic neurons in the brain are reduced in numbers and function. The enzyme tyrosine hydroxylase (TH) is required to synthesise dopamine. A loss of TH signifies a loss of dopamine production (Harkavyi et al., 2008).
Adult male C57BL/6 mice were given the dopaminergic toxin MPTP (20 mg/kg in 0.1 mL of PBS i.p. at 2-h intervals of 4 doses MPTP; Sigma) or vehicle (PBS) for one day. This treatment selectively affects dopaminergic neurons and induces Parkinson-like symptoms in mice.
The dose of peptide tested was 10 nmol/kg body weight. The peptides were administered by a once-daily intraperitoneal injection for 2 weeks. Saline injections were administered as a control. Six animals per group were injected with a peptide or a saline control.
The rotarod consists of a rotating pole that accelerates over time. Mice are placed on the rod, and motor skills are tested by accelerating the rotation. As the rotation increases, animals lose grip and fall on a cushion located below the rod. […] Each animal's endurance time was recorded, and the average was calculated. Data were analysed using a one-way ANOVA with post-hoc Bonferroni tests.

C57BL/6 mice given MPTP [6] = assay: Immunohistochemistry for TH in the substantia nigra pars compacta, MPTP Parkinson mouse model; format: in vivo; settings: 10 nmol/kg i.p. once daily for 2 weeks, FIG. 4, N=6 per group
Description: as §4
Adult male C57BL/6 mice were given the dopaminergic toxin MPTP (20 mg/kg in 0.1 mL of PBS i.p. at 2-h intervals of 4 doses MPTP; Sigma) or vehicle (PBS) for one day. […]
Immunohistochemistry for TH in the Substantia Nigra Pars Compacta and the Striatum Six animals per group were analysed for expression of tyrosine hydroxylase (TH), a marker for dopamine production. Coronal brain sections (20 μm) from striatum (bregma […]) and SNpc (bregma […]) were analysed by immunohistochemistry using antibodies recognising TH.
Sections were cut on a cryostat and postfixed in 4% paraformaldehyde, washed in PBS, treated with 0.3% H2O2 in methanol for 20 min, and washed again. […] For each animal, three tissue sections from one level of striatum were stained and analysed for TH-positive fibre innervation. […] Two tissue sections from each level were quantified by immunohistochemistry. […]

Row | Substance | motor impairment, chronic inflammation in the brain and loss of dopaminergic neurons induced by MPTP [1] | amyloid plaque load [2] | synaptic plasticity in area CA1 of the hippocampus and spatial memory formation [2] | beta-amyloid plaque load in the cortex (% area positive for beta amyloid in cross sections of the brain cortex) (APP/PS1 transgenic mice [3]; 10 nmol/kg body weight, once-daily intraperitoneal injection for 8 weeks, FIG. 1, N=6 per group) | beta-amyloid plaque load compared with the single GIP or GLP-1 analogues (APP/PS1 transgenic mice [3]; 10 nmol/kg i.p. once daily for 8 weeks, FIG. 1) | synapse loss / synaptic densities in the cortex (APP/PS1 transgenic mice [4]) | impairment of motor skills (rotarod endurance time) (C57BL/6 mice given MPTP [5]) | MPTP-induced reduction of TH in the substantia nigra, pars compacta (protection of dopaminergic neurons) (C57BL/6 mice given MPTP [6])
1 | D-Ala^2-GIP | protective and prevented the impairment of motor activity, the loss of dopaminergic neurons, loss of synapses and the chronic inflammation response induced by MPTP | much reduced | unimpaired | – | – | – | – | –
2 | lixisenatide | good effects in preventing the motor impairment, chronic inflammation in the brain, and loss of dopaminergic neurons | – | – | – | – | – | – | –
3 | YXEGTFTSDYSIYLDKQAAXEFVNWLLAGGPSSGAPPPSKKKKKK-NH2 (Y[Aib]EGTFTSDYSIYLDKQAA[Aib]EFVNWLLAGGPSSGAPPPSKKKKKK-NH2) [DA4, No. 11; X=aminoisobutyric acid] | – | – | – | reduces beta-amyloid plaque load | superior to the single GIP or GLP-1 analogues | protected from synapse loss | protect mice from an impairment of motor skills induced by MPTP | protected dopaminergic neurons at a greater rate than the single GIP and GLP-1 analogues
